The source of these data is ChEMBL document CHEMBL1914411, “Synthesis of lipophilic dimeric C-7/C-7-linked ciprofloxacin and C-6/C-6-linked levofloxacin derivatives. Versatile in vitro biological evaluations of monomeric and dimeric fluoroquinolone derivatives as potential antitumor, antibacterial or antimycobacterial agents” (Eur J Med Chem, 2011).

SMILES strings stand for the structures. Values after ≈ are worked out from the molar mass of the structure shown. Active and inactive are the calls of the source. Some results are limits rather than exact numbers.

Assay [1] has as its system Staphylococcus aureus. The assay can be described thus: Antimicrobial activity against Staphylococcus aureus CIP 4.83 after 18 to 24 hrs by broth microdilution method. It counts as functional. On the technique in general: In broth dilution the organism is exposed to a series of concentrations in liquid medium.
Assay [2] relates to Enterococcus hirae. Nature of the assay: Antimicrobial activity against Enterococcus hirae CIP 5855 after 18 to 24 hrs by broth microdilution method. It is filed as functional.
The subject of assay [3] is Pseudomonas aeruginosa. Nature of the assay: Antimicrobial activity against Pseudomonas aeruginosa CIP 82.118 after 18 to 24 hrs by broth microdilution method. It counts as functional.
The subject of assay [4] is Escherichia coli. The assay can be described thus: Antimicrobial activity against Escherichia coli CIP 53126 after 18 to 24 hrs by broth microdilution method. It is filed as functional.
Assay [5] concerns Staphylococcus aureus. The assay can be described thus: Antimicrobial activity against methicillin-resistant Staphylococcus aureus ATCC 33591 after 18 to 24 hrs by broth microdilution method. It counts as functional.
In assay [6] the test system is Staphylococcus aureus. Nature of the assay: Antimicrobial activity against methicillin-resistant Staphylococcus aureus ATCC 33592 after 18 to 24 hrs by broth microdilution method. It is filed as functional.
For assay [7], the system named is Staphylococcus aureus. The assay can be described thus: Antimicrobial activity against multidrug-resistant Staphylococcus aureus isolate 1 after 18 to 24 hrs by broth microdilution method. It is filed as functional.
In assay [8] the test system is Staphylococcus aureus. Nature of the assay: Antimicrobial activity against multidrug-resistant Staphylococcus aureus isolate 2 after 18 to 24 hrs by broth microdilution method. It counts as functional.
The subject of assay [9] is Mycobacterium tuberculosis. The assay can be described thus: Antimycobacterial activity against Mycobacterium tuberculosis H37Rv assessed as growth inhibition at 0.1 uM after 6 days by MTT colorimetric microassay. It counts as functional, organism-based.

The MBC is the smallest concentration meeting the test's criterion for killing. Read a high MBC as weaker bactericidal potency. One may read the MIC as the lowest concentration that inhibits growth of the organism. A low value points to inhibition by little substance. Regarding `O=C(O)c1cn(C2CC2)c2cc(N3CCN(C(=O)COCc4ccccc4)CC3)c(F)cc2c1=O`, the MBC was no more than 0.24 µM in assay [1]; 7.8 µM (≈ 3.74 µg/mL) in assay [2]; 250 µM (≈ 120 µg/mL) in assay [3]; 1.9 µM (≈ 0.911 µg/mL) in [4]; 0.97 µM (≈ 0.465 µg/mL) in [5]; 0.97 µM (≈ 0.465 µg/mL) in assay [6]. For the same compound, the minimum bactericidal concentration (MBC) was found to be 500 µM (≈ 240 µg/mL) in [7] and 125 µM (≈ 59.9 µg/mL) in assay [8]. In addition, the minimal inhibitory concentration (MIC) in assay [1] is no more than 0.12 µM; in assay [2], 7.8 µM (≈ 3.74 µg/mL); in [3], 15.6 µM (≈ 7.48 µg/mL); in [4], no more than 0.97 µM; in [5] it was 0.48 µM (≈ 0.23 µg/mL); in [6], 0.24 µM (≈ 0.115 µg/mL). In addition, the results for the MIC in [7] and in assay [8] were 125 µM (≈ 59.9 µg/mL) and 62.5 µM (≈ 30 µg/mL), respectively. Besides, the “growth inhibition (GI)” value in assay [9] was “inactive”.
As to `CCCCCCCCCOC(=O)N1CCN(c2cc3c(cc2F)c(=O)c(C(=O)O)cn3C2CC2)CC1`, the MBC in [1] came out at 125 µM (≈ 62.7 µg/mL); in assay [2], 250 µM (≈ 125 µg/mL); in [3] it was 250 µM (≈ 125 µg/mL); in [4], 500 µM (≈ 251 µg/mL). For the same compound, the MIC in assay [1] was 62.5 µM (≈ 31.3 µg/mL); in assay [2], 62.5 µM (≈ 31.3 µg/mL); in assay [3], 125 µM (≈ 62.7 µg/mL); in assay [4], 125 µM (≈ 62.7 µg/mL). Moreover, in assay [9], the “growth inhibition (GI)” value is “inactive”.
For `CCCCCCCCCCOC(=O)N1CCN(c2cc3c(cc2F)c(=O)c(C(=O)O)cn3C2CC2)CC1`, the MBC worked out at 62.5 µM (≈ 32.2 µg/mL) in assay [1], 500 µM (≈ 258 µg/mL) in assay [2], 250 µM (≈ 129 µg/mL) in assay [3] and 500 µM (≈ 258 µg/mL) in [4]. Also, the MIC in assay [1] came out at 62.5 µM (≈ 32.2 µg/mL); in [2], 62.5 µM (≈ 32.2 µg/mL); in assay [3], 125 µM (≈ 64.5 µg/mL); in assay [4] it was 125 µM (≈ 64.5 µg/mL). Moreover, the “growth inhibition (GI)” value in [9] was “inactive”.
Turning to `CCCCCCCCCCCCCCCC(=O)OCC(=O)N1CCN(c2cc3c(cc2F)c(=O)c(C(=O)O)cn3C2CC2)CC1`, the MBC in [1] came out at 500 µM (≈ 314 µg/mL); in assay [2] it was 500 µM (≈ 314 µg/mL); in [3] it was 250 µM (≈ 157 µg/mL); in assay [4] it was 500 µM (≈ 314 µg/mL). Moreover, the MIC in [1] was 62.5 µM (≈ 39.2 µg/mL); in assay [2] it was 125 µM (≈ 78.5 µg/mL); in assay [3], 125 µM (≈ 78.5 µg/mL); in assay [4], 125 µM (≈ 78.5 µg/mL). The “growth inhibition (GI)” value in [9] is “inactive”.
For `CCCCCCCCCCCCOC(=O)N1CCN(c2cc3c(cc2F)c(=O)c(C(=O)O)cn3C2CC2)CC1`, the MBC in assay [1] stood at 125 µM (≈ 68 µg/mL); in assay [2], 500 µM (≈ 272 µg/mL); in assay [3], 125 µM (≈ 68 µg/mL); in assay [4] it was 250 µM (≈ 136 µg/mL). The MIC in assay [1] was 125 µM (≈ 68 µg/mL); in [2], 62.5 µM (≈ 34 µg/mL); in [3] it was 125 µM (≈ 68 µg/mL); in assay [4], 125 µM (≈ 68 µg/mL). Besides, in [9], the “growth inhibition (GI)” value was “inactive”.
As to `O=C(O)c1cn(C2CC2)c2cc(N3CCN(C(=O)CCCCCCCCCCCCCCC(=O)N4CCN(c5cc6c(cc5F)c(=O)c(C(=O)O)cn6C5CC5)CC4)CC3)c(F)cc2c1=O`, the MBC in assay [1] was 15.6 µM (≈ 14.2 µg/mL); in [2], 500 µM (≈ 457 µg/mL); in [3], 250 µM (≈ 228 µg/mL); in assay [4], 500 µM (≈ 457 µg/mL). Moreover, the MIC stood at 1.9 µM (≈ 1.73 µg/mL) in assay [1], 62.5 µM (≈ 57.1 µg/mL) in [2], 62.5 µM (≈ 57.1 µg/mL) in assay [3] and 62.5 µM (≈ 57.1 µg/mL) in assay [4]. In addition, the “growth inhibition (GI)” value in assay [9] is “inactive”.
Take `CCCCCCNC(=O)c1cn2c3c(c(N4CCN(C)CC4)c(F)cc3c1=O)OC[C@@H]2C`: the MBC was 250 µM (≈ 111 µg/mL) in assay [1], 250 µM (≈ 111 µg/mL) in assay [2], 250 µM (≈ 111 µg/mL) in assay [3] and 500 µM (≈ 222 µg/mL) in [4]. Besides, the MIC came to 250 µM (≈ 111 µg/mL) in assay [1], 125 µM (≈ 55.6 µg/mL) in assay [2], 62.5 µM (≈ 27.8 µg/mL) in assay [3] and 125 µM (≈ 55.6 µg/mL) in assay [4]. The “growth inhibition (GI)” value in assay [9] was “inactive”.
For the compound `CCCCCCCCCCCCCC(=O)N1CCN(c2cc3c(cc2F)c(=O)c(C(=O)O)cn3C2CC2)CC1`, the MBC in assay [1] came out at 125 µM (≈ 67.7 µg/mL); in assay [2] it was 250 µM (≈ 135 µg/mL); in [3], 250 µM (≈ 135 µg/mL); in assay [4], 500 µM (≈ 271 µg/mL). The MIC in [1] was 125 µM (≈ 67.7 µg/mL); in [2], 62.5 µM (≈ 33.9 µg/mL); in assay [3], 125 µM (≈ 67.7 µg/mL); in [4], 125 µM (≈ 67.7 µg/mL). Also, the “growth inhibition (GI)” value in [9] was “inactive”.
